SMILES strings stand for the structures. Where only a bound is given, the exact number is not on record here.

The values that follow come from ChEMBL document CHEMBL4419163, “Assays for identifying compounds that modulate bitter taste” (2014).

Format in all cases: functional, cell-based
The target of test [1] is T1, Taste receptor type 2 member 1 (Homo sapiens) (UniProt Q9NYW7).
T1 sequence (whole entry): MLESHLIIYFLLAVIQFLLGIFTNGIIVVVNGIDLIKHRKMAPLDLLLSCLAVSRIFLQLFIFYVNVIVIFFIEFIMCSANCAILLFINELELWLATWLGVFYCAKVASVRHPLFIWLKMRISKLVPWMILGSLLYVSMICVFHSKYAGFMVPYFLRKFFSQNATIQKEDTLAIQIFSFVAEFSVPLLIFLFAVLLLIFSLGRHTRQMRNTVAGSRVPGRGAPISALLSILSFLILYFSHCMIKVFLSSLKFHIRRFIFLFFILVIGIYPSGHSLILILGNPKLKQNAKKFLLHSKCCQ
In words: Agonist activity at human TAS2R1 expressed in HEK293T cells co-expressing Galpha15 assessed as increase in intracellular calcium level at 20 mM by Calcium-3 dye based fluorescence assay relative to control. On the technique in general: Calcium flux is commonly read through the fluorescence of an indicator in the cells.

In test [2] the target is T2, Taste receptor type 2 member 13 (Homo sapiens) (UniProt Q9NYV9).
T2 sequence (whole entry): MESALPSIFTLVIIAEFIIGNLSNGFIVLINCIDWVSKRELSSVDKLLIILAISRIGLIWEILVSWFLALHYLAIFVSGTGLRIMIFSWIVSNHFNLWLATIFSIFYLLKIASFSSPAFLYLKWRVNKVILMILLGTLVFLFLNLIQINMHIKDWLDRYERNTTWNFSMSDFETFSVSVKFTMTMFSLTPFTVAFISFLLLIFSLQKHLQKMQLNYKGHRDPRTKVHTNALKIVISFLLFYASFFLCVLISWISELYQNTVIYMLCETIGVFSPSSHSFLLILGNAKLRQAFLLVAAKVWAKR
Briefly: Agonist activity at human TAS2R13 expressed in HEK293T cells co-expressing Galpha15 assessed as increase in intracellular calcium level at 20 mM by Calcium-3 dye based fluorescence assay relative to control.

For test [3], the target named is T3, Taste receptor type 2 member 7 (Homo sapiens) (UniProt Q9NYW3).
T3 sequence (whole entry): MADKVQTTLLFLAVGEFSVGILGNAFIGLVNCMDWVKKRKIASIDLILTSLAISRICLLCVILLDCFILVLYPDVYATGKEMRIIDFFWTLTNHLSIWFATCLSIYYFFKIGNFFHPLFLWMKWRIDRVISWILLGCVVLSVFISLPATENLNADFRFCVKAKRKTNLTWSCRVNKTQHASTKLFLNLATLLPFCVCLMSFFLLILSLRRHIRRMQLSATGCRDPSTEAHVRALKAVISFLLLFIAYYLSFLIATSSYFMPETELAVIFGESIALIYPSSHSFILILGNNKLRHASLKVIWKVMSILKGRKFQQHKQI
Briefly: Agonist activity at human TAS2R7 expressed in HEK293T cells co-expressing Galpha15 assessed as increase in intracellular calcium level at 20 mM by Calcium-3 dye based fluorescence assay relative to control.

Test [4] has as its target T4, Taste receptor type 2 member 45 (Homo sapiens) (UniProt P59539).
T4 sequence (whole entry): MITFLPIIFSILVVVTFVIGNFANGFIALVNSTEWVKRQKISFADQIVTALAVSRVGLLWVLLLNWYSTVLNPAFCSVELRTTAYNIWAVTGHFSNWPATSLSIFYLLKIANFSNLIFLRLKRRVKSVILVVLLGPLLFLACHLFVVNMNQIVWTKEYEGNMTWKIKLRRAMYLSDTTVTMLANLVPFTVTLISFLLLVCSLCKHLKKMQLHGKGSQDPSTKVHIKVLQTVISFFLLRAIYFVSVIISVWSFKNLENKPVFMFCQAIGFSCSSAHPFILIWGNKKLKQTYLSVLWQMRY
Briefly: Agonist activity at human TAS2R45 expressed in HEK293T cells co-expressing Galpha15 assessed as increase in intracellular calcium level at 20 mM by Calcium-3 dye based fluorescence assay relative to control.

Test [5] concerns the target T5, Taste receptor type 2 member 31 (Homo sapiens) (UniProt P59538).
T5 sequence (whole entry): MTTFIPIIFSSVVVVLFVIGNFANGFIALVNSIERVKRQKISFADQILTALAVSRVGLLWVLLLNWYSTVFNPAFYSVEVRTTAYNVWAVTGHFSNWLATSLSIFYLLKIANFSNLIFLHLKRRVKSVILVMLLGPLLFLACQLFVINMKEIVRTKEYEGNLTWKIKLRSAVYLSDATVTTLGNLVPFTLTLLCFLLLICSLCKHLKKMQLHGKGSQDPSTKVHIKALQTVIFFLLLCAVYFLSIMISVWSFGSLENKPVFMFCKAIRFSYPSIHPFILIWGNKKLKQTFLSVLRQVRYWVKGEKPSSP
In words: Agonist activity at human TAS2R44 expressed in HEK293T cells co-expressing Galpha15 assessed as increase in intracellular calcium level at 20 mM by Calcium-3 dye based fluorescence assay relative to control.

In test [6] the target is Taste receptor type 2 member 40 (Homo sapiens) (UniProt P59535). Briefly: Agonist activity at human TAS2R40 expressed in HEK293T cells co-expressing Galpha15 assessed as increase in intracellular calcium level at 20 mM by Calcium-3 dye based fluorescence assay relative to control.
For test [7], the target named is T6, Taste receptor type 2 member 20 (Homo sapiens) (UniProt P59543).
T6 sequence (whole entry): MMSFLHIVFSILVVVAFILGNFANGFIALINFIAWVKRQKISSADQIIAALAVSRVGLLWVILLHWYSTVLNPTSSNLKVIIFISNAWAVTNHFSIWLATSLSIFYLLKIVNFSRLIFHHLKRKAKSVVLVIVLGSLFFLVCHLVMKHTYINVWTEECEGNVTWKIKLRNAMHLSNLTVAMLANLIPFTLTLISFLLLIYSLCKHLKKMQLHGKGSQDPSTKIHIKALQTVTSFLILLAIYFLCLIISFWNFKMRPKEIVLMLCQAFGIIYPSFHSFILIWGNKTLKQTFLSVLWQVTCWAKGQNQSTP
Briefly: Agonist activity at human TAS2R49 expressed in HEK293T cells co-expressing Galpha15 assessed as increase in intracellular calcium level at 20 mM by Calcium-3 dye based fluorescence assay relative to control.

In test [8] the target is T7, Taste receptor type 2 member 4 (Homo sapiens) (UniProt Q9NYW5).
T7 sequence (whole entry): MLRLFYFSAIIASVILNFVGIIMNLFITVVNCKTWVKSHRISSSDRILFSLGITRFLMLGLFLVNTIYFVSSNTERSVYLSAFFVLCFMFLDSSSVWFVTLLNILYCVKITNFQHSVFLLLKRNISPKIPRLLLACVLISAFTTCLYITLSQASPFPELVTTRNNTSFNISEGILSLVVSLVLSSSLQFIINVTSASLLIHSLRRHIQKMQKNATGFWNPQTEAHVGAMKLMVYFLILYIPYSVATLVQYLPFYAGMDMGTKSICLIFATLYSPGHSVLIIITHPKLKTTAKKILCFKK
Briefly: Agonist activity at human TAS2R4 expressed in HEK293T cells co-expressing Galpha15 assessed as increase in intracellular calcium level at 20 mM by Calcium-3 dye based fluorescence assay relative to control.

Taste receptor type 2 member 40 (Homo sapiens), sequence (P59535 whole entry): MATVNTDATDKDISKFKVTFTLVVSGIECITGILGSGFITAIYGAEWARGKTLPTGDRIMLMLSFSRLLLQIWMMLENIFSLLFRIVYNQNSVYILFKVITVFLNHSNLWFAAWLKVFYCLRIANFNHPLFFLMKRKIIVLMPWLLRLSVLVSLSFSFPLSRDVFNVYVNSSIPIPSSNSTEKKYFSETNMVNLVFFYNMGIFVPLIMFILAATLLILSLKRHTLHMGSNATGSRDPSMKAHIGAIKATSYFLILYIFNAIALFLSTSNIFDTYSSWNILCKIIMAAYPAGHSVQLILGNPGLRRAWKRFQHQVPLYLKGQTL

On to `CC(O)C(=O)[O-].[K+]` (centres undefined), for which the Activity in test [1] is less than 40%; in test [2], greater than 40%; in test [3], less than 40%; in test [4], less than 40%; in test [5], greater than 40%; in test [6], less than 40%. For the same molecule, the Activity in test [7] is less than 40%; in test [8], greater than 40%.
On to `[Cl-].[K+]` [POTASSIUM CHLORIDE], for which the Activity in test [1] is less than 40%; in test [2], greater than 40%; in test [3], less than 40%; in test [4] it was less than 40%; in test [5], greater than 40%; in test [6], less than 40%. For the same molecule, the Activity in test [7] is less than 40%; in test [8], greater than 40%.
Take `CC1=CC(=O)NS(=O)(=O)O1`: the Activity in test [1] is greater than 40%; in test [2], greater than 40%; in test [3], less than 40%; in test [4], less than 40%; in test [5], greater than 40%; in test [6] it was less than 40%. The Activity is less than 40% in test [7] and greater than 40% in test [8].
